Here are results for 25 compounds from US20080051387A1, “TETRAHYDROPYRIDO[3,4-D]PYRIMIDINES AND RELATED ANALOGUES” (priority 2006, published 2008).

This assay has as its target T1, chimeric human H3 receptor (Homo sapiens, UniProt Q9Y5N1).
T1 construct: rat Galpha-i2 (Gnai2, rat); made in house; host or cells: Sf9 insect cells (baculovirus); P2 membranes
Nature of the assay: Chimeric human H3 receptor screening GTP binding assay (inhibition of histamine-stimulated GTP-gamma35S binding, Example 8). Type of assay: biochemical. Particulars: 1 h; assay of Example 8; symbol "!" in column headed Ki; read-out: percent inhibition of agonist-induced GTP-gammaS binding to H3. In outline:
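Compound tested at 4 μM against 1 μM histamine stimulation; 125 pM GTP-gamma35S binding measured by filtration and scintillation after 60 min at room temperature. Membranes from Sf9 cells expressing chimeric human H3 plus G-protein subunits, in Tris pH 7.4/NaCl/MgCl2/GDP buffer; values are % inhibition after nonspecific subtraction.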
For orientation: Binding of GTPγS marks nucleotide exchange on a G protein.

Broadly, the inhibition is the drop in the measured response relative to a control, in per cent.

T1 sequence (Q9Y5N1 with tags, fused parts or gaps): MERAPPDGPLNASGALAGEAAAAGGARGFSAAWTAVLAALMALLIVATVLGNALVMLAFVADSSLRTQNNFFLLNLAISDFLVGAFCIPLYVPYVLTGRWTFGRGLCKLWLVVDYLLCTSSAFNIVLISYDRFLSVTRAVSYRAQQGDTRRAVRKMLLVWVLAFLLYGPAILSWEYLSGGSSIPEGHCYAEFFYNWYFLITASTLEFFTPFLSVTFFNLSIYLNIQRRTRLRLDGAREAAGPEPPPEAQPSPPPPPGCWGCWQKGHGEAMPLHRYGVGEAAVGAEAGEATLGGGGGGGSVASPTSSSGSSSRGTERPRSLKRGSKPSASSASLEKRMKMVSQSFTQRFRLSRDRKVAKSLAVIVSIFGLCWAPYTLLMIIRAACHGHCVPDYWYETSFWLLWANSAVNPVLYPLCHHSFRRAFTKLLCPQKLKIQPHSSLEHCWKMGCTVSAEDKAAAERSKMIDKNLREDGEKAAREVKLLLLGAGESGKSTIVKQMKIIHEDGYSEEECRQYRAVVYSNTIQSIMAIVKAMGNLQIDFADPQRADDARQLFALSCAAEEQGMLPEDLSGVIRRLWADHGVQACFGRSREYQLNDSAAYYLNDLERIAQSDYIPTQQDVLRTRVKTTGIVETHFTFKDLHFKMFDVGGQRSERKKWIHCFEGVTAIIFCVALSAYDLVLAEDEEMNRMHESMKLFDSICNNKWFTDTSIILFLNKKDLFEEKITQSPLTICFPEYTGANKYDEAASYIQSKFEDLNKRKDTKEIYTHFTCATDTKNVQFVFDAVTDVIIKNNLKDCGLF

For `Cc1noc(C)c1C(=O)N1CCc2cnc(N3CCN(C4CCC4)CC3)nc2CC1` [Compound 201, 2-(4-cyclobutylpiperazin-1-yl)-7-[(3,5-dimethylisoxazol-4-yl)carbonyl]-6,7,8,9-tetrahydro-5H-pyrimido[4,5-d]azepine], the inhibition at 4 µM was no less than 90%.
In the case of `Cc1ncccc1C(=O)N1CCc2cnc(N3CCN(C4CCC4)CC3)nc2CC1` [Compound 202, 2-(4-cyclobutylpiperazin-1-yl)-7-[(2-methylpyridin-3-yl)carbonyl]-6,7,8,9-tetrahydro-5H-pyrimido[4,5-d]azepine] it was no less than 90%; in that of `Cc1cc(C(=O)N2CCc3cnc(N4CCN(C5CCC5)CC4)nc3CC2)nn1C` [Compound 203, 2-(4-cyclobutylpiperazin-1-yl)-7-[(1,5-dimethyl-1H-pyrazol-3-yl)carbonyl]-6,7,8,9-tetrahydro-5H-pyrimido[4,5-d]azepine], no less than 90%; in that of `CCn1nc(C)cc1C(=O)N1CCc2cnc(N3CCN(C4CCC4)CC3)nc2CC1` [Compound 204, 2-(4-cyclobutylpiperazin-1-yl)-7-[(1-ethyl-3-methyl-1H-pyrazol-5-yl)carbonyl]-6,7,8,9-tetrahydro-5H-pyrimido[4,5-d]azepine], no less than 90%.
As to `CC(C)c1ccc(C(=O)N2CCc3cnc(N4CCN(C5CCC5)CC4)nc3CC2)cc1` [Compound 205, 2-(4-cyclobutylpiperazin-1-yl)-7-(4-isopropylbenzoyl)-6,7,8,9-tetrahydro-5H-pyrimido[4,5-d]azepine], the inhibition at 4 µM was no less than 90%.
For the compound `CCCC(=O)N1CCc2cnc(N3CCN(C4CCC4)CC3)nc2CC1` [Compound 206, 7-butyryl-2-(4-cyclobutylpiperazin-1-yl)-6,7,8,9-tetrahydro-5H-pyrimido[4,5-d]azepine], the inhibition at 4 µM is no less than 90%.
In the case of `CCCCC(=O)N1CCc2cnc(N3CCN(C4CCC4)CC3)nc2CC1` [Compound 207, 2-(4-cyclobutylpiperazin-1-yl)-7-pentanoyl-6,7,8,9-tetrahydro-5H-pyrimido[4,5-d]azepine] it was no less than 90%.
With `CC(C)CC(=O)N1CCc2cnc(N3CCN(C4CCC4)CC3)nc2CC1` [Compound 208, 2-(4-cyclobutylpiperazin-1-yl)-7-(3-methylbutanoyl)-6,7,8,9-tetrahydro-5H-pyrimido[4,5-d]azepine], the inhibition at 4 µM is no less than 90%.
To `CC(C)CCC(=O)N1CCc2cnc(N3CCN(C4CCC4)CC3)nc2CC1` [Compound 209, 2-(4-cyclobutylpiperazin-1-yl)-7-(4-methylpentanoyl)-6,7,8,9-tetrahydro-5H-pyrimido[4,5-d]azepine] belongs no less than 90%.
With `O=C(CC1CCCC1)N1CCc2cnc(N3CCN(C4CCC4)CC3)nc2CC1` [Compound 210, 2-(4-cyclobutylpiperazin-1-yl)-7-(cyclopentylacetyl)-6,7,8,9-tetrahydro-5H-pyrimido[4,5-d]azepine], the inhibition at 4 µM was no less than 90%.
In the case of `O=C(CC1CCCCC1)N1CCc2cnc(N3CCN(C4CCC4)CC3)nc2CC1` [Compound 211, 2-(4-cyclobutylpiperazin-1-yl)-7-(cyclohexylacetyl)-6,7,8,9-tetrahydro-5H-pyrimido[4,5-d]azepine] it was no less than 90%; in that of `O=C(CCC1CCCC1)N1CCc2cnc(N3CCN(C4CCC4)CC3)nc2CC1` [Compound 212, 2-(4-cyclobutylpiperazin-1-yl)-7-(3-cyclopentylpropanoyl)-6,7,8,9-tetrahydro-5H-pyrimido[4,5-d]azepine], no less than 90%.
For `O=C(Cc1ccccc1)N1CCc2cnc(N3CCN(C4CCC4)CC3)nc2CC1` [Compound 213, 2-(4-cyclobutylpiperazin-1-yl)-7-(phenylacetyl)-6,7,8,9-tetrahydro-5H-pyrimido[4,5-d]azepine], the inhibition at 4 µM is no less than 90%.
In the case of `COCCC(=O)N1CCc2cnc(N3CCN(C4CCC4)CC3)nc2CC1` [Compound 214, 2-(4-cyclobutylpiperazin-1-yl)-7-(3-methoxypropanoyl)-6,7,8,9-tetrahydro-5H-pyrimido[4,5-d]azepine] it was no less than 90%.
For the compound `O=C(C1CC1)N1CCc2cnc(N3CCN(C4CCC4)CC3)nc2CC1` [Compound 215, 2-(4-cyclobutylpiperazin-1-yl)-7-(cyclopropylcarbonyl)-6,7,8,9-tetrahydro-5H-pyrimido[4,5-d]azepine], the inhibition at 4 µM was no less than 90%.
In the case of `O=C(C1CCC1)N1CCc2cnc(N3CCN(C4CCC4)CC3)nc2CC1` [Compound 216, 7-(cyclobutylcarbonyl)-2-(4-cyclobutylpiperazin-1-yl)-6,7,8,9-tetrahydro-5H-pyrimido[4,5-d]azepine], the inhibition at 4 µM was no less than 90%.
As for `O=C(C1CCCC1)N1CCc2cnc(N3CCN(C4CCC4)CC3)nc2CC1` [Compound 217, 2-(4-cyclobutylpiperazin-1-yl)-7-(cyclopentylcarbonyl)-6,7,8,9-tetrahydro-5H-pyrimido[4,5-d]azepine], the inhibition at 4 µM is no less than 90%.
As to `O=C(C1CCCCC1)N1CCc2cnc(N3CCN(C4CCC4)CC3)nc2CC1` [Compound 218, 2-(4-cyclobutylpiperazin-1-yl)-7-(cyclohexylcarbonyl)-6,7,8,9-tetrahydro-5H-pyrimido[4,5-d]azepine], the inhibition at 4 µM is no less than 90%.
In the case of `O=C(C1CCCCCC1)N1CCc2cnc(N3CCN(C4CCC4)CC3)nc2CC1` [Compound 219, 2-(4-cyclobutylpiperazin-1-yl)-7-(cycloheptylcarbonyl)-6,7,8,9-tetrahydro-5H-pyrimido[4,5-d]azepine] it was no less than 90%; in that of `O=C(C1CCCO1)N1CCc2cnc(N3CCN(C4CCC4)CC3)nc2CC1` (stereo not shown) [Compound 220, 2-(4-cyclobutylpiperazin-1-yl)-7-(tetrahydrofuran-2-ylcarbonyl)-6,7,8,9-tetrahydro-5H-pyrimido[4,5-d]azepine], no less than 90%.
To `O=C(C1CCOC1)N1CCc2cnc(N3CCN(C4CCC4)CC3)nc2CC1` (stereo not shown) [Compound 221, 2-(4-cyclobutylpiperazin-1-yl)-7-(tetrahydrofuran-3-ylcarbonyl)-6,7,8,9-tetrahydro-5H-pyrimido[4,5-d]azepine] belongs no less than 90%; to `CC(C)C(=O)N1CCc2cnc(N3CCN(C4CCC4)CC3)nc2CC1` [Compound 222, 2-(4-cyclobutylpiperazin-1-yl)-7-isobutyryl-6,7,8,9-tetrahydro-5H-pyrimido[4,5-d]azepine], no less than 90%; to `CCC(C)C(=O)N1CCc2cnc(N3CCN(C4CCC4)CC3)nc2CC1` (stereo not shown) [Compound 223, 2-(4-cyclobutylpiperazin-1-yl)-7-(2-methylbutanoyl)-6,7,8,9-tetrahydro-5H-pyrimido[4,5-d]azepine], no less than 90%.
To `CCCC(C)C(=O)N1CCc2cnc(N3CCN(C4CCC4)CC3)nc2CC1` (stereo not shown) [Compound 224, 2-(4-cyclobutylpiperazin-1-yl)-7-(2-methylpentanoyl)-6,7,8,9-tetrahydro-5H-pyrimido[4,5-d]azepine] belongs no less than 90%; to `O=C(/C=C/c1ccccc1)N1CCc2cnc(N3CCN(C4CCC4)CC3)nc2CC1` [Compound 225, 2-(4-cyclobutylpiperazin-1-yl)-7-[(2E)-3-phenylprop-2-enoyl]-6,7,8,9-tetrahydro-5H-pyrimido[4,5-d]azepine], no less than 90%.
